In patent US20180104220A1, “IMIDAZOLE COMPOUND” (MEDSHINE DISCOVERY INC., priority 2015, published 2018):

target: T1, thromboxane synthetase (Rattus norvegicus, UniProt P49430); experiment: Release of TXB2 in the in-vitro coagulation process of rats' whole blood; assay type: cell-based; settings: male SD rat whole blood, 37° C. 30 mins, TXB2 by LC-MS/MS; class symbols; read-out: IC50 for the release level of TXB2 in the in-vitro coagulation of rats' whole blood (thromboxane synthetase)
T1 construct: Whole blood was collected from the heart of male SD rat after isoflurane anesthesia; from tissue; host or cells: whole blood of male Sprague-Dawley rats
T1 sequence (P49430 1-533): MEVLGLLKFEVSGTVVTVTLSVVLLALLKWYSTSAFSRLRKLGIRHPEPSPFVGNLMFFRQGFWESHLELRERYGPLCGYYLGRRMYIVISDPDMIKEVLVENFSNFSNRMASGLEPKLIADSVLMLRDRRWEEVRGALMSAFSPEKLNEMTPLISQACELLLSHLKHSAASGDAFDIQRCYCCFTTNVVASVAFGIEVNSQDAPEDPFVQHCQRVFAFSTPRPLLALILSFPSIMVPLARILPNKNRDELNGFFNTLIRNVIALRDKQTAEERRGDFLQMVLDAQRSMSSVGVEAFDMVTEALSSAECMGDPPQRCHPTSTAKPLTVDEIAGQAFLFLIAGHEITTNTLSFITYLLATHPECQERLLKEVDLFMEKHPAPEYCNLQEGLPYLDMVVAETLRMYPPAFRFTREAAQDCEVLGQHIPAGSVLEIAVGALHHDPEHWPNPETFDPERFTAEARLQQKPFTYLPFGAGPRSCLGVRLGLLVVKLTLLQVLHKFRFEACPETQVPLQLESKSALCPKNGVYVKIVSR
Excerpt: Study for the Release of TXB2 in the in-vitro Coagulation Process of Rats' Whole Blood
In the in-vitro coagulation process, thromboxane A2 (TXA2) pathway was activated, resulting in the formation of large amounts of TXA2, which were rapidly metabolized to its stable form thromboxane B2 (TXB2).
The key enzyme of this pathway was thromboxane synthase. The generation of TXA2 could be inhibited by blocking this enzyme with specific inhibitors (tested compounds), and the level of TXB2 was thus decreased.
The activity of tested compound was measured with the IC50 of inhibiting the formation of TBX2.
Male Sprague-Dawley (SD) rats, purchased from Shanghai SLAC Laboratory Animal Co., Ltd.
0.9% normal saline, […] NaOH solution (vehicle), 100 uM thromboxane synthetase inhibitor solution, isoflurane
1. Tested compound was dissolved by normal saline and prepared to required concentration by gradient dilution. 167 uL of prepared solution was added to centrifuge tube.
2. Whole blood was collected from the heart of male SD rat after isoflurane anesthesia, added to centrifuge tube (0.5 mL), shaken up and incubated under 37° C. water bath for 30 mins until complete coagulation.
3. Centrifuge tube was taken out and centrifuged for 5 mins (6000 g, 4° C.) to get serum.
4. Assay the content of TXB2 by LC-MS/MS-AG (API 4000).
By comparison with the vehicle group, TXB2 contents of each sample were normalized to Control % by the formule:
Control %=(TBX2 level in test tube−TBX2 level in negative tube)/TBX2 level in control tube×100
Note: Test tube: solution of tested compound with series concentration
Negative tube: solution of thromboxane synthetase inhibitor at high concentration (100 uM)
Using GraphPad Prism (concentration as X-axis and Control % as Y-axis) to fit the data and calculate IC50.

SMILES	IC50 [nM]
CC(C)(c1ccc(-c2cc(O)no2)cc1)n1ccnc1 [Compound 23, 5-(4-(2-(1H-imidazol-1-yl)propan-2-yl)phenyl)isoxazol-3-ol]	100 to 250
Oc1cc(-c2ccc(Cn3ccnc3)cc2)[nH]n1 [Compound 31, 5-(4-((1H-imidazol-1-yl)methyl)phenyl)-1H-pyrazol-3-ol]	> 250
Oc1c(F)ccc(-c2ccc(Cn3ccnc3)cc2)c1F [Compound 28, 4′-((1H-imidazol-1-yl)methyl)-2,4-difluoro-[1,1′-biphenyl]-3-ol]	100 to 250
Oc1cc([C@H]2CC[C@@H](Cn3ccnc3)CC2)on1 [Compound 35, 5-(cis-4-((1H-imidazol-1-yl)methyl)cyclohexyl)isoxazol-3-ol]	50 to 100
Oc1cc(-c2ccc(Cn3ccnc3)c(C3CC3)c2)on1 [Compound 15, 5-(4-((1H-imidazol-1-yl)methyl)-3-cyclopropylphenyl)isoxazol-3-ol]	50 to 100
COc1cc(Cn2ccnc2)ccc1-c1cc(O)no1 [Compound 9, 5-(4-((1H-imidazol-1-yl)methyl)-2-methoxyphenyl)isoxazol-3-ol]	≤ 25
Oc1cc(-c2ccc(Cn3ccnc3)nc2)on1 [Compound 14, 5-(6-((1H-imidazol-1-yl)methyl)pyridin-3-yl)isoxazol-3-ol]	> 250
C[C@@H](c1ccc(-c2cc(O)no2)cc1)n1ccnc1 [Compound 22, (S)-5-(4-(1-(1H-imidazol-1-yl)ethyl)phenyl)isoxazol-3-ol]	50 to 100
Oc1cc([C@H]2CC[C@H](Cn3ccnc3)CC2)on1 [Compound 34, 5-(trans-4-((1H-imidazol-1-yl)methyl)cyclohexyl)isoxazol-3-ol]	25 to 50
Oc1cc(-c2ccc(Cn3ccnc3)c(Br)c2)on1 [Compound 13, 5-(4-((1H-imidazol-1-yl)methyl)-3-bromophenyl)isoxazol-3-ol]	25 to 50
Oc1cc(Cc2ccc(Cn3ccnc3)cc2)on1 [Compound 25, 5-(4-(2-(1H-imidazol-1-yl)methyl)benzyl)isoxazol-3-ol]	> 250
Cc1cc(-c2cc(O)no2)cc(C)c1Cn1ccnc1 [Compound 18, 5-(4-((1H-imidazol-1-yl)methyl)-3,5-dimethylphenyl)isoxazol-3-ol]	> 250
Cc1cc(Cn2ccnc2)ccc1-c1cc(O)no1 [Compound 8, 5-(4-((1H-imidazol-1-yl)methyl)-2-methylphenyl)isoxazol-3-ol]	50 to 100
Oc1cc(CCCCCn2ccnc2)on1 [Compound 33, 5-(5-(1H-imidazol-1-yl)pentyl)isoxazol-3-ol]	> 250
Oc1cc(-c2cc(F)c(Cn3ccnc3)cc2F)on1 [Compound 4, 5-(4-((1H-imidazol-1-yl)methyl)-2,5-difluorophenyl)isoxazol-3-ol]	25 to 50
Oc1cc(-c2ccc(Cn3ccnc3)c(Cl)c2)on1 [Compound 11, 5-(4-((1H-imidazol-1-yl)methyl)-3-chlorophenyl)isoxazol-3-ol]	25 to 50
Oc1nccc(-c2ccc(Cn3ccnc3)cc2)c1F [Compound 27, 4-(4-((1H-imidazol-1-yl)methyl)phenyl)-3-fluoropyridin-2-ol]	> 250
Oc1nccc(C2=CCC(Cn3ccnc3)CC2)c1F (stereo not drawn) [Compound 36, 4-(4-((1H-imidazol-1-yl)methyl)cyclohex-1-en-1-yl)-3-fluoropyridin-2-ol]	100 to 250
Oc1cc(-c2cccc(Cn3ccnc3)c2)on1 [Compound 24, 5-(3-((1H-imidazol-1-yl)methyl)phenyl)isoxazol-3-ol]	> 250
Oc1cc(-c2ccc(Cn3ccnc3)cc2)on1 [Compound 1, 5-(4-((1H-imidazol-1-yl)methyl)phenyl)isoxazol-3-ol]	≤ 25
Oc1cc(CCCCn2ccnc2)on1 [Compound 32, 5-(4-(1H-imidazol-1-yl)butyl)isoxazol-3-ol]	> 250

Other lines, results leading:

IC50 [nM]	SMILES
≤ 25	CCc1cc(-c2cc(O)no2)ccc1Cn1ccnc1 [Compound 16, 5-(4-((1H-imidazol-1-yl)methyl)-3-ethylphenyl)isoxazol-3-ol]
≤ 25	Oc1cc(-c2cc(F)c(Cn3ccnc3)c(F)c2)on1 [Compound 17, 5-(4-((1H-imidazol-1-yl)methyl)-3,5-difluorophenyl)isoxazol-3-ol]
25 to 50	Cc1cc(-c2cc(O)no2)ccc1Cn1ccnc1 [Compound 12, 5-(4-((1H-imidazol-1-yl)methyl)-3-methylphenyl)isoxazol-3-ol]
100 to 250	Oc1cc(-c2ccc(Cn3ccnc3)c(F)c2)on1 [Compound 2, 5-(4-((1H-imidazol-1-yl)methyl)-3-fluorophenyl)isoxazol-3-ol]
50 to 100	Oc1cc(-c2ccc(Cn3ccnc3)cc2F)on1 [Compound 3, 5-(4-((1H-imidazol-1-yl)methyl)-2-fluorophenyl)isoxazol-3-ol]
≤ 25	C[C@H](c1ccc(-c2cc(O)no2)cc1)n1ccnc1 [Compound 21, (R)-5-(4-(1-(1H-imidazol-1-yl)ethyl)phenyl)isoxazol-3-ol]
50 to 100	Oc1cc(-c2c(F)cc(Cn3ccnc3)cc2F)on1 [Compound 5, 5-(4-((1H-imidazol-1-yl)methyl)-2,6-difluorophenyl)isoxazol-3-ol]
50 to 100	Oc1cc(-c2ccc(Cn3ccnc3)cc2Cl)on1 [Compound 7, 5-(4-((1H-imidazol-1-yl)methyl)-2-chlorophenyl)isoxazol-3-ol]
≤ 25	CC(c1ccc(-c2cc(O)no2)cc1)n1ccnc1 (stereo not drawn) [Compound 20, 5-(4-(1-(1H-imidazol-1-yl)ethyl)phenyl)isoxazol-3-ol]
> 250	Oc1cc(-c2ccc(Cn3ccnc3)cc2)sn1 [Compound 29, 5-(4-((1H-imidazol-1-yl)methyl)phenyl)isothiazol-3-ol]
> 250	Oc1cc(Cc2cccc(Cn3ccnc3)c2)on1 [Compound 26, 5-(3-((1H-imidazol-1-yl)methyl)benzyl)isoxazol-3-ol]
50 to 100	COc1cc(-c2cc(O)no2)ccc1Cn1ccnc1 [Compound 10, 5-(4-((1H-imidazol-1-yl)methyl)-3-methoxyphenyl)isoxazol-3-ol]
25 to 50	Oc1cc(-c2cc(F)c(Cn3ccnc3)c(Cl)c2)on1 [Compound 6, 5-(4-((1H-imidazol-1-yl)methyl)-3-chloro-5-fluorophenyl)-isoxazol-3-ol]
> 250	Cc1c(O)noc1-c1ccc(Cn2ccnc2)cc1 [Compound 30, 5-(4-((1H-imidazol-1-yl)methyl)phenyl)-4-methylisoxazol-3-ol]

same assay, conditions: male SD rat whole blood, 37° C. 30 mins, TXB2 by LC-MS/MS; numeric value; read-out: IC50 for the release level of TXB2 in the in-vitro coagulation of rats' whole blood (thromboxane synthetase)

IC50 [nM]	SMILES
120	O=C(O)/C=C/c1ccc(Cn2ccnc2)cc1 [Ozagrel, reference compound]
